Like-named read-outs stand apart in the source and are kept apart here.
Experiments:
[1] = tested on: T. cruzi epimastigotes; experiment: In vitro trypanocidal activity on T. cruzi epimastigotes (alamarBlue); assay type: cell-based, Trypanosoma cruzi; details: 72 h; for IC50: Trypanosoma cruzi
Method: In a 96-well plate, a serial dilution of the tested compounds was performed in the liver infusion tryptose medium supplemented with 10% heat-inactivated fetal bovine serum. Later, 100 µL of 5 × 10^5 cells/mL of epimastigotes was added to each well. Afterwards, 20 µL of alamarBlue® was added to each well, and the plate was maintained at 26 °C for 72 h.
(§1) The cytotoxicity effect of the tested compounds was conducted using macrophages of the murine cell line J774.A1 (American Type Culture Collection #TIB-67) as previously described. The cells were maintained in the DMEM medium at 37 °C in a 5% CO2 humidified incubator. All the plates containing alamarBlue® were analyzed using the plate reader EnSpire Multimode Plate Reader® at excitation and emission wavelengths of 570 and 585 nm, respectively (PerkinElmer, ThermoFisher Scientific, Madrid, Spain). The IC50 (concentrations able to inhibit 50% of parasites), IC90 (concentrations able to inhibit 90% of parasites), and CC50 (concentration able to inhibit 50% of murine macrophages) values were determined for each compound by nonlinear regression using the GraphPad Prism 9 software.

[2] = In vitro leishmanicidal activity on L. amazonensis promastigotes (Alamar Blue); assay type: cell-based, Leishmania amazonensis; details: mouse; CC50 J774.A1 macrophages / IC50 L. amazonensis promastigotes; read-out: Selectivity SI (CC50/IC50), promastigotes
Method: (§2) The assay was conducted using the Alamar Blue® method as previously described. […] In 96-well microtiter plates (Corning^TM, Corning, NY, USA), serial dilutions of the citral derivative were first prepared, and later 10^6 parasites/mL were added into each well. Subsequently, 10% Alamar Blue® was added to the entire plate. The plates were incubated for 72 h at 26 °C. The cytotoxicity effect of the tested compounds was conducted using macrophages of the murine cell line J774.A1 (American Type Culture Collection #TIB-67) as previously described. The cells were maintained in the DMEM medium at 37 °C in a 5% CO2 humidified incubator. […] The IC50 (concentrations able to inhibit 50% of parasites), IC90 (concentrations able to inhibit 90% of parasites), and CC50 (concentration able to inhibit 50% of murine macrophages) values were determined for each compound by nonlinear regression using the GraphPad Prism 9 software.

[3] = tested on: L. amazonensis promastigotes; experiment: as above; assay type: cell-based, Leishmania amazonensis; details: 72 h, promastigotes, 72 h, ± SD
Method: as §2

[4] = Cytotoxicity on murine macrophages; assay type: cell-based; details: mouse, ± SD
Method: as §1

[5] = In vitro leishmanicidal activity on L. amazonensis intracellular amastigotes; assay type: cell-based, Leishmania amazonensis; details: mouse; CC50 J774.A1 macrophages / IC50 L. amazonensis amastigotes; read-out: Selectivity SI (CC50/IC50), amastigotes
[6] = tested on: L. amazonensis intracellular amastigotes; experiment: as above; assay type: cell-based, Leishmania amazonensis; details: Leishmania amazonensis; intracellular amastigotes; ± SD
[7] = tested on: L. amazonensis promastigotes; experiment: Mitochondrial membrane potential (JC-1 staining); assay type: cell-based, Leishmania amazonensis; details: IC90, 24 h, JC-1 red/green fluorescence ratio
Method: The effect of compound 9 to modulate cell features was studied in the L. amazonensis parasites using various specific commercial kits. Parasite cells were incubated with the compound at the previously calculated IC90 for 24 h. Subsequently, cells were washed and submitted to different treatments as mentioned by the manufacturer’s instructions. In all the assays, the plate reader EnSpire Multimode Plate Reader® (PerkinElmer, ThermoFisher Scientific, Madrid, Spain) and/or the image base system fluorescence microscope EVOS M5000 (version 1.5.1500.493) were used for fluorescence intensity quantification. […]
To evaluate the damage caused by the tested compound on mitochondrial function, mitochondrial membrane potential, the adenosine triphosphate (ATP) level, and reactive oxygen species (ROS) were measured as follows: The evaluation of the mitochondrial membrane potential was carried out using the JC-1 assay. JC-1 is a specific stain of the mitochondria which fluorescence emission depends on the mitochondrial membrane potential. In healthy mitochondria, JC-1 agglomerates and emits red fluorescence, while unhealthy ones remain as a monomer and emit green fluorescence. […]

[8] = tested on: L. amazonensis; experiment: ATP level (CellTiter-Glo luminescence); assay type: cell-based, Leishmania amazonensis; details: IC90, 24 h
Method: (§3) The effect of compound 9 to modulate cell features was studied in the L. amazonensis parasites using various specific commercial kits. Parasite cells were incubated with the compound at the previously calculated IC90 for 24 h. Subsequently, cells were washed and submitted to different treatments as mentioned by the manufacturer’s instructions. In all the assays, the plate reader EnSpire Multimode Plate Reader® (PerkinElmer, ThermoFisher Scientific, Madrid, Spain) and/or the image base system fluorescence microscope EVOS M5000 (version 1.5.1500.493) were used for fluorescence intensity quantification. For each protocol, images of representative population cells were obtained using the inverted confocal microscope Leica DMI 4000 B with the Leica Application Suite X 3.5.5.19976 software and Leica HC PL APO 63x/1.40 OIL CS2 Objective (Barcelona, Spain).
The adenosine triphosphate (ATP) level was measured using the CellTiter-Glo Luminescent Cell Viability Assay (Promega, Madrid, Spain). The mitochondrion in which most cellular oxidations occur is considered the main source of cell ATP, and any damage and/or malfunction of this organelle generate the depletion of ATP levels.

[9] = tested on: L. amazonensis; experiment: Intracellular ROS (CellROX Deep Red); assay type: cell-based, Leishmania amazonensis; details: IC90, 24 h
Method: as §3, with “Parasite” for “The effect of compound 9 to modulate cell features was studied in the L. amazonensis parasites using various specific commercial kits. Parasite”, “Spain). The measure of reactive oxygen species (ROS) was measured after treatment for 24 h using the CellROX® Deep Red fluorescent probe (Invitrogen, Madrid, Spain). The mitochondrion constitute an essential organelle to neutralize the reactive oxygen species; the malfunction of this organelle would generate an imbalance between the antioxidants and the reactive oxygen.” for “Spain).”

[10] = tested on: L. amazonensis; experiment: Plasma membrane permeability (SYTOX Green); assay type: cell-based, Leishmania amazonensis; details: IC90, 24 h
Method: as §3
SYTOX^TM Green (Life Technologies, Madrid, Spain), a cell-impermeable DNA-binding stain, was used to evaluate membrane permeability and integrity. The assay was conducted as detailed in the manufacture instructions and as previously described.

[11] = tested on: L. amazonensis promastigotes; experiment: Double stain assay (Hoechst 33342/PI) for programmed cell death; assay type: cell-based, Leishmania amazonensis; details: IC90, 24 h
Method: as §3
To identify the type of cell death occurring in treated Leishmania amazonensis, the Hoechst 33342 and propidium iodide (PI) dyes were employed. […] Post-treatment, three distinct staining patterns could be observed: blue fluorescence indicating cells […]; violet coloration resulting from the merge of blue and red fluorescence, representing late apoptotic cells; and red fluorescence corresponding to dead cells.

[12] = Leishmania amazonensis, Alamar Blue, read-out: L. amazonensis IC50
[13] = Leishmania amazonensis, read-out: L. amazonensis Promastigotes IC50

Q: With `O=C(Cn1ccnc1[N+](=O)[O-])NCc1ccccc1` [Benznidazole, reference compound] as the compound, how does the IC50 [1] read?
A: 1.81 µM

Q: And the IC50 ([1]; alamarBlue, ± SD)?
A: 1.81 ± 0.5 µg/mL

Q: For `CC(C)=CCCC(C)=CC=O` [Compound 1, 3,7-dimethyl-2,6-octadienal], which selectivity ratio [2] is on record?
A: 6.97

Q: And the IC50 [3, 12]?
A: 10.9 µg/mL

Q: What about the “L. amazonensis IC50” value ([3]; Alamar Blue, listed as Citral (1)) of the same compound?
A: 8.47 ± 4.59 µg/mL

Q: And the “T. cruzi IC50” value ([1]; alamarBlue, ± SD, listed as Citral (1))?
A: 12.90 ± 1.92 µg/mL

Q: And the IC50 [1]?
A: 12.9 µM

Q: And the IC50 ([1]; alamarBlue, ± SD)?
A: 24.8 µg/mL

Q: And the CC50 ([4]; J774.A1 macrophage cell line)?
A: > 300 µM

Q: For `CC(C)=CCC/C(C)=C/C=NO` [Compound 2, citral oxime], which selectivity ratio [2] is on record?
A: 12.6

Q: What about the IC50 [3, 13] of the same compound?
A: 40.8 ± 19.4 µM

Q: What about the selectivity ratio [5] of the same compound?
A: 9.39

Q: What about the IC50 [6] of the same compound?
A: 56.9 ± 19.1 µM

Q: What about the CC50 ([4]; J774.A1 macrophage cell line) of the same compound?
A: > 300 µM

Q: With `CC(=O)ON=C/C=C(\C)CCC=C(C)C` [Compound 3, citral oxime acetate] as the compound, how does the IC50 [3, 13] read?
A: > 100 µM

Q: Which IC50 [3, 13] does the source give for `CCCC(=O)ON=C/C=C(\C)CCC=C(C)C` [Compound 4, citral oxime butyrate] here?
A: > 100 µM

Q: With `CC(C)=CCC/C(C)=C/C=NOC(=O)c1ccccc1` [Compound 5, citral oxime benzoate] as the compound, how does the selectivity ratio [2] read?
A: 10.4

Q: What about the IC50 [3, 13] of the same compound?
A: 29.3 ± 8.07 µM

Q: What about the CC50 ([4]; J774.A1 macrophage cell line) of the same compound?
A: > 300 µM

Q: With `CC(C)=CCC/C(C)=C/C=NOC(=O)c1ccc([N+](=O)[O-])cc1` [Compound 6, citral oxime 4-nitrobenzoate] as the compound, how does the selectivity ratio [2] read?
A: 9.25

Q: What about the IC50 [3, 13] of the same compound?
A: 34.2 ± 14.4 µM

Q: What about the CC50 ([4]; J774.A1 macrophage cell line) of the same compound?
A: > 300 µM

Q: With `CC(C)=CCC/C(C)=C/C=NNC(N)=O` [Compound 7, citral semicarbazone] as the compound, how does the selectivity ratio [2] read?
A: 9.29

Q: And the IC50 [3, 13]?
A: 43.8 ± 12.1 µM

Q: What about the CC50 ([4]; J774.A1 macrophage cell line) of the same compound?
A: > 300 µM

Q: Which selectivity ratio [2] does the source give for `CC(C)=CCCC(C)=CC=NNc1ccc([N+](=O)[O-])cc1[N+](=O)[O-]` [Compound 9, citral 2,4-dinitrophenylhydrazone] here?
A: 2.98

Q: And the IC50 [3, 13]?
A: 10.6 ± 4.78 µM

Q: And the selectivity ratio [5]?
A: 1.47

Q: And the IC50 [6]?
A: 21.4 ± 0.65 µM

Q: And the CC50 ([4]; murine macrophages J774.A1)?
A: 31.6 ± 1.96 µM

Q: What about the “Decrease of mitochondrial membrane potential in comparison with untreated cells” value [7] of the same compound?
A: 50%

Q: What about the “Reduction in ATP production in comparison to the negative controls” value [8] of the same compound?
A: 46.35%

Q: What about the “Intracellular ROS level (in words)” value [9] of the same compound?
A: significant increase in emitted fluorescence

Q: And the “Effect on plasma membrane permeability (in words)” value [10]?
A: can affect the cell’s membrane permeability

Q: And the “Type of cell death (in words)” value [11]?
A: induction of mitochondrial-dependent apoptosis

Q: With `CCCCCCCCCCCCCCCCOP(=O)([O-])OCC[N+](C)(C)C` [Miltefosine, reference compound] as the compound, how does the selectivity ratio [2] read?
A: 11.2

Q: What about the IC50 [3, 12] of the same compound?
A: 2.64 ± 0.09 µg/mL

Q: What about the IC50 ([3]; read-out: L. amazonensis Promastigotes IC50) of the same compound?
A: 2.64 µM

Q: And the selectivity ratio [5]?
A: 23.1

Q: What about the IC50 [6] of the same compound?
A: 3.12 ± 0.3 µM

Q: And the CC50 ([4]; J774.A1 macrophage cell line)?
A: 72.2 ± 8.85 µM

Q: And the “Decrease of mitochondrial membrane potential in comparison with untreated cells” value [7]?
A: 75%

Q: And the “Reduction in ATP production in comparison to the negative controls” value [8]?
A: 74.11%

Q: What about the “Effect on plasma membrane permeability (in words)” value [10] of the same compound?
A: greater degree of damage to membrane permeability compared to compound 9

— publication PMC12193109, “Bioprospecting for Anti-Kinetoplastid Drug Discovery from Aloysia citrodora Essential Oil” (International Journal of Molecular Sciences, 2025)
